US10538555B2, “Macrocyclic inhibitors of the PD-1/PD-L1 and CD80(B7-1)/PD-L1 protein/protein interactions” (BRISTOL-MYERS SQUIBB COMPANY, priority 2014, dated 2020)
Read-outs that look alike come from different tables or passages of the source. Where a SMILES comes first, the peptide text is derived from it. Bridges are numbered along the chain shown (N, C = ends). [ ]: non-standard residue; d: D form. Hyp = O=C(O)[C@@H]1C[C@@H](O)CN1; NMeNle = CCCC[C@H](NC)C(=O)O; NMeA = CN[C@@H](C)C(=O)O; Orn = NCCC[C@H](N)C(=O)O; Dab = NCC[C@H](N)C(=O)O; Dap = NC[C@H](N)C(=O)O

Target: T1, Human PD-L1/PD-1 (Homo sapiens, UniProt Q9NZQ7)
T1 construct: TVMV protease cleavage site (C); made in house; host or cells: HEK293T cells
T1 sequence (Q9NZQ7 with tags, fused parts or gaps): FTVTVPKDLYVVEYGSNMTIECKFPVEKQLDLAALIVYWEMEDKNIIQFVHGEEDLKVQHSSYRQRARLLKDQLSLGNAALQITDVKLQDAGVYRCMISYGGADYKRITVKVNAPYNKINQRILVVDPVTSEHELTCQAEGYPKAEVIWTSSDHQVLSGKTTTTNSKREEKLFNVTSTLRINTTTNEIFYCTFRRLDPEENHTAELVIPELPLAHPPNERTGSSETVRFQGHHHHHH
Assay: HTRF Human PD-L1/PD-1 binding assay (PD-1-Ig/PD-L1-His)
Details: PD-L1-His 10 nM, PD-1-Ig 20 nM
How it was run: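 Competition of macrocyclic peptides for PD-1/PD-L1 binding measured by HTRF in dPBS containing 0.1% BSA and 0.05% Tween-20. Compound and PD-L1-His (10 nM final) incubated 15 min before PD-1-Ig (20 nM final) and a further 15 min.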

[1] = class symbol, read-out: HTRF Human PD-L1/PD-1 Binding Assay IC50 Range

CCCC[C@H]1C(=O)N(C)[C@@H](CCCC)C(=O)N[C@@H](CCCN)C(=O)N[C@H](C(=O)NCC(N)=O)CSCC(=O)N[C@@H](Cc2ccc(OC)cc2)C(=O)N(C)[C@@H](C)C(=O)N[C@@H](CCN)C(=O)N2CCC[C@H]2C(=O)N[C@@H](Cc2cnc[nH]2)C(=O)N[C@@H](CCCCN)C(=O)N2C[C@H](O)C[C@H]2C(=O)N[C@@H](Cc2c[nH]c3ccccc23)C(=O)N[C@@H](CCN)C(=O)N[C@@H](Cc2c[nH]c3ccccc23)C(=O)N1C [Example 7095] ({CH2CO}-Y(Me)[NMeA][Dab]PHK[Hyp]W[Dab]W[NMeNle][NMeNle][Orn]CG-NH2; thioether N-14)
IC50 [1]: 1 to 9.9 nM

CCCC[C@H]1C(=O)N(C)[C@@H](CCCC)C(=O)N[C@@H](CCCN)C(=O)N[C@H](C(=O)NCC(N)=O)CSCC(=O)N[C@@H](Cc2ccc(OC)cc2)C(=O)N(C)[C@@H](C)C(=O)N[C@@H](CC(N)=O)C(=O)N2CCC[C@H]2C(=O)N[C@@H](Cc2cnc[nH]2)C(=O)N[C@@H](CCC(=O)O)C(=O)N2C[C@H](O)C[C@H]2C(=O)N[C@@H](Cc2c[nH]c3ccccc23)C(=O)N[C@@H](CC(=O)O)C(=O)N[C@@H](Cc2c[nH]c3ccccc23)C(=O)N1C [Example 7097] ({CH2CO}-Y(Me)[NMeA]NPHE[Hyp]WDW[NMeNle][NMeNle][Orn]CG-NH2; thioether N-14)
IC50 [1]: 1 to 9.9 nM

CCCC[C@H]1C(=O)N(C)[C@@H](CCCC)C(=O)N[C@@H](CCCN)C(=O)N[C@H](C(=O)NCC(N)=O)CSCC(=O)N[C@@H](Cc2ccc(OC)cc2)C(=O)N(C)[C@@H](C)C(=O)N[C@@H](CC(=O)O)C(=O)N2CCC[C@H]2C(=O)N[C@@H](Cc2cnc[nH]2)C(=O)N[C@@H](CCC(=O)O)C(=O)N2C[C@H](O)C[C@H]2C(=O)N[C@@H](Cc2c[nH]c3ccccc23)C(=O)N[C@@H](CCN)C(=O)N[C@@H](Cc2c[nH]c3ccccc23)C(=O)N1C [Example 7098] ({CH2CO}-Y(Me)[NMeA]DPHE[Hyp]W[Dab]W[NMeNle][NMeNle][Orn]CG-NH2; thioether N-14)
IC50 [1]: 1 to 9.9 nM

CCCC[C@H]1C(=O)N(C)[C@@H](CCCC)C(=O)N[C@@H](CCCN)C(=O)N[C@H](C(=O)NCC(N)=O)CSCC(=O)N[C@@H](Cc2ccc(OC)cc2)C(=O)N(C)[C@@H](C)C(=O)N[C@@H](CC(=O)O)C(=O)N2CCC[C@H]2C(=O)N[C@@H](Cc2cnc[nH]2)C(=O)N[C@@H](CCC(=O)O)C(=O)N2C[C@H](O)C[C@H]2C(=O)N[C@@H](Cc2c[nH]c3ccccc23)C(=O)N[C@@H](CC(=O)O)C(=O)N[C@@H](Cc2c[nH]c3ccccc23)C(=O)N1C [Example 7099] ({CH2CO}-Y(Me)[NMeA]DPHE[Hyp]WDW[NMeNle][NMeNle][Orn]CG-NH2; thioether N-14)
IC50 [1]: 10 to 99.9 nM

CCCC[C@H]1C(=O)N(C)[C@@H](CCCC)C(=O)N[C@@H](CCCN)C(=O)N[C@H](C(=O)NCC(N)=O)CSCC(=O)N[C@@H](Cc2ccc(OC)cc2)C(=O)N(C)[C@@H](C)C(=O)N[C@@H](CC(N)=O)C(=O)N2CCC[C@H]2C(=O)N[C@@H](CN)C(=O)N[C@@H](CCC(=O)O)C(=O)N2C[C@H](O)C[C@H]2C(=O)N[C@@H](Cc2c[nH]c3ccccc23)C(=O)N[C@@H](CC(=O)O)C(=O)N[C@@H](Cc2c[nH]c3ccccc23)C(=O)N1C [Example 7100] ({CH2CO}-Y(Me)[NMeA]NP[Dap]E[Hyp]WDW[NMeNle][NMeNle][Orn]CG-NH2; thioether N-14)
IC50 [1]: 1 to 9.9 nM

CCCC[C@H]1C(=O)N(C)[C@@H](CCCC)C(=O)N[C@@H](CCCN)C(=O)N[C@H](C(=O)NCC(N)=O)CSCC(=O)N[C@@H](Cc2ccc(OC)cc2)C(=O)N(C)[C@@H](C)C(=O)N[C@@H](CC(=O)O)C(=O)N2CCC[C@H]2C(=O)N[C@@H](CN)C(=O)N[C@@H](CCC(=O)O)C(=O)N2C[C@H](O)C[C@H]2C(=O)N[C@@H](Cc2c[nH]c3ccccc23)C(=O)N[C@@H](CC(=O)O)C(=O)N[C@@H](Cc2c[nH]c3ccccc23)C(=O)N1C [Example 7101] ({CH2CO}-Y(Me)[NMeA]DP[Dap]E[Hyp]WDW[NMeNle][NMeNle][Orn]CG-NH2; thioether N-14)
IC50 [1]: 1 to 9.9 nM

CCCC[C@H]1C(=O)N(C)[C@@H](CCCC)C(=O)N[C@@H](CCCN)C(=O)N[C@H](C(=O)NCC(N)=O)CSCC(=O)N[C@@H](Cc2ccc(OC)cc2)C(=O)N(C)[C@@H](C)C(=O)N[C@@H](CCN)C(=O)N2CCC[C@H]2C(=O)N[C@@H](CN)C(=O)N[C@@H](CCCCN)C(=O)N2C[C@H](O)C[C@H]2C(=O)N[C@@H](Cc2c[nH]c3ccccc23)C(=O)N[C@@H](CCN)C(=O)N[C@@H](Cc2c[nH]c3ccccc23)C(=O)N1C [Example 7103] ({CH2CO}-Y(Me)[NMeA][Dab]P[Dap]K[Hyp]W[Dab]W[NMeNle][NMeNle][Orn]CG-NH2; thioether N-14)
IC50 [1]: 10 to 99.9 nM

CCCC[C@H]1C(=O)N(C)[C@@H](CCCC)C(=O)N[C@@H](CCCN)C(=O)N[C@H](C(=O)NCC(N)=O)CSCC(=O)N[C@@H](Cc2ccc(OC)cc2)C(=O)N(C)[C@@H](C)C(=O)N[C@@H](CCN)C(=O)N2CCC[C@H]2C(=O)N[C@@H](Cc2cnc[nH]2)C(=O)N[C@@H](CCC(=O)O)C(=O)N2C[C@H](O)C[C@H]2C(=O)N[C@@H](Cc2c[nH]c3ccccc23)C(=O)N[C@@H](CC(=O)O)C(=O)N[C@@H](Cc2c[nH]c3ccccc23)C(=O)N1C [Example 7104] ({CH2CO}-Y(Me)[NMeA][Dab]PHE[Hyp]WDW[NMeNle][NMeNle][Orn]CG-NH2; thioether N-14)
IC50 [1]: 10 to 99.9 nM

CCCC[C@H]1C(=O)N(C)[C@@H](CCCC)C(=O)N[C@@H](CCCN)C(=O)N[C@H](C(=O)NCC(N)=O)CSCC(=O)N[C@@H](Cc2ccc(OC)cc2)C(=O)N(C)[C@@H](C)C(=O)N[C@@H](CCN)C(=O)N2CCC[C@H]2C(=O)N[C@@H](CN)C(=O)N[C@@H](CCC(=O)O)C(=O)N2C[C@H](O)C[C@H]2C(=O)N[C@@H](Cc2c[nH]c3ccccc23)C(=O)N[C@@H](CC(=O)O)C(=O)N[C@@H](Cc2c[nH]c3ccccc23)C(=O)N1C [Example 7105] ({CH2CO}-Y(Me)[NMeA][Dab]P[Dap]E[Hyp]WDW[NMeNle][NMeNle][Orn]CG-NH2; thioether N-14)
IC50 [1]: 10 to 99.9 nM

CCCC[C@H]1C(=O)N(C)[C@@H](CCCC)C(=O)N[C@@H](CCCN)C(=O)N[C@H](C(=O)NCC(N)=O)CSCC(=O)N[C@@H](Cc2ccc(OC)cc2)C(=O)N(C)[C@@H](C)C(=O)N[C@@H](CC(=O)O)C(=O)N2CCC[C@H]2C(=O)N[C@@H](Cc2cnc[nH]2)C(=O)N[C@@H](CCCCN)C(=O)N2C[C@H](O)C[C@H]2C(=O)N[C@@H](Cc2c[nH]c3ccccc23)C(=O)N[C@@H](CC(=O)O)C(=O)N[C@@H](Cc2c[nH]c3ccccc23)C(=O)N1C [Example 7106] ({CH2CO}-Y(Me)[NMeA]DPHK[Hyp]WDW[NMeNle][NMeNle][Orn]CG-NH2; thioether N-14)
IC50 [1]: 1 to 9.9 nM

CCCC[C@H]1C(=O)N(C)[C@@H](CCCC)C(=O)N[C@@H](CCCN)C(=O)N[C@H](C(=O)NCC(N)=O)CSCC(=O)N[C@@H](Cc2ccc(OC)cc2)C(=O)N(C)[C@@H](C)C(=O)N[C@@H](CCN)C(=O)N2CCC[C@H]2C(=O)N[C@@H](Cc2cnc[nH]2)C(=O)N[C@@H](CCCCN)C(=O)N2C[C@H](O)C[C@H]2C(=O)N[C@@H](Cc2c[nH]c3ccccc23)C(=O)N[C@@H](CC(=O)O)C(=O)N[C@@H](Cc2c[nH]c3ccccc23)C(=O)N1C [Example 7107] ({CH2CO}-Y(Me)[NMeA][Dab]PHK[Hyp]WDW[NMeNle][NMeNle][Orn]CG-NH2; thioether N-14)
IC50 (read-out: HTRF Human PD-L1/PD-1 Binding Assay IC50): 304 nM

CCCC[C@H]1C(=O)N(C)[C@@H](CCCC)C(=O)N[C@@H](CCCN)C(=O)N[C@H](C(=O)NCC(N)=O)CSCC(=O)N[C@@H](Cc2ccc(OC)cc2)C(=O)N(C)[C@@H](C)C(=O)N[C@@H](CC(N)=O)C(=O)N2CCC[C@H]2C(=O)N[C@@H](CN)C(=O)N[C@@H](CCCCN)C(=O)N2C[C@H](O)C[C@H]2C(=O)N[C@@H](Cc2c[nH]c3ccccc23)C(=O)N[C@@H](CC(=O)O)C(=O)N[C@@H](Cc2c[nH]c3ccccc23)C(=O)N1C [Example 7108] ({CH2CO}-Y(Me)[NMeA]NP[Dap]K[Hyp]WDW[NMeNle][NMeNle][Orn]CG-NH2; thioether N-14)
IC50 [1]: 1 to 9.9 nM

CCCC[C@H]1C(=O)N(C)[C@@H](CCCC)C(=O)N[C@@H](CCC(=O)O)C(=O)N[C@H](C(=O)NCC(N)=O)CSCC(=O)N[C@@H](Cc2ccc(OC)cc2)C(=O)N(C)[C@@H](C)C(=O)N[C@@H](CC(N)=O)C(=O)N2CCC[C@H]2C(=O)N[C@@H](Cc2cnc[nH]2)C(=O)N[C@@H](CCC(=O)O)C(=O)N2C[C@H](O)C[C@H]2C(=O)N[C@@H](Cc2c[nH]c3ccccc23)C(=O)N[C@@H](CCN)C(=O)N[C@@H](Cc2c[nH]c3ccccc23)C(=O)N1C [Example 7109] ({CH2CO}-Y(Me)[NMeA]NPHE[Hyp]W[Dab]W[NMeNle][NMeNle]ECG-NH2; thioether N-14)
IC50 [1]: 1 to 9.9 nM

CCCC[C@H]1C(=O)N(C)[C@@H](CCCC)C(=O)N[C@@H](CCC(=O)O)C(=O)N[C@H](C(=O)NCC(N)=O)CSCC(=O)N[C@@H](Cc2ccc(OC)cc2)C(=O)N(C)[C@@H](C)C(=O)N[C@@H](CC(=O)O)C(=O)N2CCC[C@H]2C(=O)N[C@@H](Cc2cnc[nH]2)C(=O)N[C@@H](CCC(=O)O)C(=O)N2C[C@H](O)C[C@H]2C(=O)N[C@@H](Cc2c[nH]c3ccccc23)C(=O)N[C@@H](CCN)C(=O)N[C@@H](Cc2c[nH]c3ccccc23)C(=O)N1C [Example 7110] ({CH2CO}-Y(Me)[NMeA]DPHE[Hyp]W[Dab]W[NMeNle][NMeNle]ECG-NH2; thioether N-14)
IC50 [1]: 1 to 9.9 nM

CCCC[C@H]1C(=O)N(C)[C@@H](CCCC)C(=O)N[C@@H](CCC(=O)O)C(=O)N[C@H](C(=O)NCC(N)=O)CSCC(=O)N[C@@H](Cc2ccc(OC)cc2)C(=O)N(C)[C@@H](C)C(=O)N[C@@H](CCN)C(=O)N2CCC[C@H]2C(=O)N[C@@H](Cc2cnc[nH]2)C(=O)N[C@@H](CCC(=O)O)C(=O)N2C[C@H](O)C[C@H]2C(=O)N[C@@H](Cc2c[nH]c3ccccc23)C(=O)N[C@@H](CCN)C(=O)N[C@@H](Cc2c[nH]c3ccccc23)C(=O)N1C [Example 7111] ({CH2CO}-Y(Me)[NMeA][Dab]PHE[Hyp]W[Dab]W[NMeNle][NMeNle]ECG-NH2; thioether N-14)
IC50 [1]: 1 to 9.9 nM
